Counter-ions that a name gives are not always drawn.
biological target: human sigma 1 receptor (Homo sapiens (Human), UniProt Q99720); test: Human Sigma 1 Receptor Radioligand Assay; format: binding; conditions: transfected HEK-293 membranes, 5 nM [3H](+)-pentazocine as radioligand, 37° C., 120 minutes
Protocol: Human Sigma 1 Receptor Radioligand Assay
To investigate binding properties of sigma 1 receptor ligands to human sigma 1 receptor, transfected HEK-293 membranes and [^3H](+)-pentazocine (Perkin Elmer, NET-1056), as the radioligand, were used. The assay was carried out with 7 μg of membrane suspension, 5 nM of [^3H](+)-pentazocine in either absence or presence of either buffer or 10 μM Haloperidol for total and non-specific binding, respectively. Binding buffer contained Tris-HCl 50 mM at pH 8. Plates were incubated at 37° C. for 120 minutes. After the incubation period, the reaction mix was then transferred to MultiScreen HTS, FC plates (Millipore), filtered and plates were washed 3 times with ice-cold 10 mM TrisHCL (pH7.4). Filters were dried and counted at approximately 40% efficiency in a MicroBeta scintillation counter (Perkin-Elmer) using EcoScint liquid scintillation cocktail.

Chain of human sigma 1 receptor (Q99720 whole entry): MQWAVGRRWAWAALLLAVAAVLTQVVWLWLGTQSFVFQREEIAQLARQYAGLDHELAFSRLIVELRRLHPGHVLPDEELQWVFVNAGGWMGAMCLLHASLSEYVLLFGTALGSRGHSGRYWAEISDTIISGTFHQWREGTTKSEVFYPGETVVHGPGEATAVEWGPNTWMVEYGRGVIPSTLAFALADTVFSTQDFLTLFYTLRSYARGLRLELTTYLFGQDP

Row | Ki | SMILES
1 | 0.105 µM | CC(C(=O)N1CCn2c(cc3ccccc32)C1)N1CCN(C)CC1 (stereo not drawn) [Example 1, 1-(3,4-dihydropyrazino[1,2-a]indol-2(1H)-yl)-2-(4-methylpiperazin-1-yl)propan-1-one]
2 | 0.0961 µM | CN1CCN(C(C)(C)C(=O)N2CCn3c(cc4ccccc43)C2)CC1 [Example 2, 1-(3,4-dihydropyrazino[1,2-a]indol-2(1H)-yl)-2-methyl-2-(4-methylpiperazin-1-yl)propan-1-one]
3 | 0.0682 µM | CC(CC(=O)N1CCn2c(cc3ccccc32)C1)N1CCN(C)CC1 (stereo not drawn) [Example 3, 1-(3,4-dihydropyrazino[1,2-a]indol-2(1H)-yl)-3-(4-methylpiperazin-1-yl)butan-1-one]
4 | 0.0102 µM | O=C(CN1CCCCCC1)N1CCn2c(cc3ccccc32)C1 [Example 4, 2-(azepan-1-yl)-1-(3,4-dihydropyrazino[1,2-a]indol-2(1H)-yl)ethanone hydrochloride]
5 | 0.0398 µM | O=C(CN1CCCCC1)N1CCn2c(cc3ccccc32)C1 [Example 5, 1-(3,4-dihydropyrazino[1,2-a]indol-2(1H)-yl)-2-(piperidin-1-yl)ethanone hydrochloride]
6 | 0.0144 µM | O=C(CN1CCC(Cc2ccccc2)CC1)N1CCn2c(cc3ccccc32)C1 [Example 6, 2-(4-benzylpiperidin-1-yl)-1-(3,4-dihydropyrazino[1,2-a]indol-2(1H)-yl)ethanone hydrochloride]
7 | 0.0248 µM | CC(C(=O)N1CCn2c(cc3ccccc32)C1)N1CCCCCC1 (stereo not drawn) [Example 7, 2-(azepan-1-yl)-1-(3,4-dihydropyrazino[1,2-a]indol-2(1H)-yl)propan-1-one]
8 | 0.129 µM | CC(C(=O)N1CCn2c(cc3ccccc32)C1)N1CCCCC1 (stereo not drawn) [Example 9, 1-(3,4-dihydropyrazino[1,2-a]indol-2(1H)-yl)-2-(piperidin-1-yl)propan-1-one]
9 | 0.025 µM | CC(C(=O)N1CCn2c(cc3ccccc32)C1)N1CCC(Cc2ccccc2)CC1 (stereo not drawn) [Example 10, 2-(4-benzylpiperidin-1-yl)-1-(3,4-dihydropyrazino[1,2-a]indol-2(1H)-yl)propan-1-one]
10 | 0.0608 µM | CN(C)CCCC(=O)N1CCn2c(cc3ccccc32)C1 [Example 11, 1-(3,4-dihydropyrazino[1,2-a]indol-2(1H)-yl)-4-(dimethylamino)butan-1-one]
11 | 0.0146 µM | O=C(CN1CCCCCC1)N1CCn2c(cc3cc(F)ccc32)C1 [Example 12, 2-(azepan-1-yl)-1-(8-fluoro-3,4-dihydropyrazino[1,2-a]indol-2(1H)-yl)ethanone]
12 | 0.0697 µM | Cc1ccc2c(c1)cc1n2CCN(C(=O)C(C)N2CCCCCC2)C1 (stereo not drawn) [Example 13, 2-(azepan-1-yl)-1-(8-methyl-3,4-dihydropyrazino[1,2-a]indol-2(1H)-yl)propan-1-one]
13 | 0.024 µM | Cc1c2n(c3ccccc13)CCN(C(=O)CN1CCCCC1)C2 [Example 14, 1-(10-methyl-3,4-dihydropyrazino[1,2-a]indol-2(1H)-yl)-2-(piperidin-1-yl)ethanone]
14 | 0.0262 µM | Cc1c2n(c3ccccc13)CCN(C(=O)CN1CCC(Cc3ccccc3)CC1)C2 [Example 15, 2-(4-benzylpiperidin-1-yl)-1-(10-methyl-3,4-dihydropyrazino[1,2-a]indol-2(1H)-yl)ethanone]
15 | 0.0222 µM | O=C(CCCN1CCCCC1)N1CCn2c(cc3cc(F)ccc32)C1 [Example 16, 1-(8-fluoro-3,4-dihydropyrazino[1,2-a]indol-2(1H)-yl)-4-(piperidin-1-yl)butan-1-one]
16 | 0.0109 µM | O=C(CCN1CCCCCC1)N1CCn2c(cc3ccccc32)C1 [Example 17, 3-(azepan-1-yl)-1-(3,4-dihydropyrazino[1,2-a]indol-2(1H)-yl)propan-1-one]
17 | 0.0559 µM | C[C@@H](C(=O)N1CCn2c(cc3ccccc32)C1)N1CCN(C)CC1 [Example 19, (S)-1-(3,4-dihydropyrazino[1,2-a]indol-2(1H)-yl)-2-(4-methylpiperazin-1-yl)propan-1-one]
18 | 0.0288 µM | O=C(CCCN1CCCCC1)N1CCn2c(cc3ccccc32)C1 [Example 20, 1-(3,4-dihydropyrazino[1,2-a]indol-2(1H)-yl)-4-(piperidin-1-yl)butan-1-one]
19 | 0.0219 µM | O=C(CCCN1CCCCCC1)N1CCn2c(cc3cc(F)ccc32)C1 [Example 21, 4-(azepan-1-yl)-1-(8-fluoro-3,4-dihydropyrazino[1,2-a]indol-2(1H)-yl)butan-1-one]

Row | Ki | SMILES
20 | 0.292 µM | CN1CCN(CCCC(=O)N2CCn3c(cc4ccccc43)C2)CC1 [Example 22, 1-(3,4-dihydropyrazino[1,2-a]indol-2(1H)-yl)-4-(4-methylpiperazin-1-yl)butan-1-one]
21 | 0.0376 µM | CC(C(=O)N1CCn2c(cc3ccccc32)C1)N1CCN(C2CCCCC2)CC1 (stereo not drawn) [Example 24, 2-(4-cyclohexylpiperazin-1-yl)-1-(3,4-dihydropyrazino[1,2-a]indol-2(1H)-yl)propan-1-one]
22 | 0.118 µM | CC(C(=O)N1CCN2c3ccccc3CC2C1)N1CCN(C)CC1 (stereo not drawn) [Example 25, 2-(4-methylpiperazin-1-yl)-1-(3,4,10,10a-tetrahydropyrazino[1,2-a]indol-2(1H)-yl)propan-1-one]
23 | 0.123 µM | CC(C(=O)N1CCn2c(cc3cc(F)ccc32)C1)N1CCN(C)CC1 (stereo not drawn) [Example 26, 1-(8-fluoro-3,4-dihydropyrazino[1,2-a]indol-2(1H)-yl)-2-(4-methylpiperazin-1-yl)propan-1-one]
24 | 0.0256 µM | CC(C(=O)N1CCn2c(cc3cc(F)ccc32)C1)N1CCN(C2CCCCC2)CC1 (stereo not drawn) [Example 27, 2-(4-cyclohexylpiperazin-1-yl)-1-(8-fluoro-3,4-dihydropyrazino[1,2-a]indol-2(1H)-yl)propan-1-one]
25 | 0.125 µM | CCN1CCN(C(C)C(=O)N2CCn3c(cc4cc(F)ccc43)C2)CC1 (stereo not drawn) [Example 29, 2-(4-ethylpiperazin-1-yl)-1-(8-fluoro-3,4-dihydropyrazino[1,2-a]indol-2(1H)-yl)propan-1-one]
26 | 0.241 µM | CCN(CC)CCNC(C)C(=O)N1CCn2c(cc3ccccc32)C1 (stereo not drawn) [Example 30, 2-(2-(diethylamino)ethylamino)-1-(3,4-dihydropyrazino[1,2-a]indol-2(1H)-yl)propan-1-one]
27 | 0.234 µM | C[C@H](C(=O)N1CCN2c3ccccc3C[C@H]2C1)N1CCN(C)CC1 [Example 32, (R)-2-(4-methylpiperazin-1-yl)-1-((S)-3,4,10,10a-tetrahydropyrazino[1,2-a]indol-2(1H)-yl)propan-1-one]
28 | 0.0843 µM | C[C@@H](C(=O)N1CCN2c3ccccc3C[C@@H]2C1)N1CCN(C)CC1 [Example 33, (S)-2-(4-methylpiperazin-1-yl)-1-((R)-3,4,10,10a-tetrahydropyrazino[1,2-a]indol-2(1H)-yl)propan-1-one]
29 | 0.0565 µM | C[C@@H](C(=O)N1CCN2c3ccccc3C[C@H]2C1)N1CCN(C)CC1 [Example 34, (S)-2-(4-methylpiperazin-1-yl)-1-((S)-3,4,10,10a-tetrahydropyrazino[1,2-a]indol-2(1H)-yl)propan-1-one]
30 | 0.5 µM | CC(C(=O)N1CCn2c(cc3ccccc32)C1)N1CCC(N2CCCCC2)CC1 (stereo not drawn) [Example 37, 2-(1,4′-bipiperidin-1′-yl)-1-(3,4-dihydropyrazino[1,2-a]indol-2(1H)-yl)propan-1-one]
31 | 0.0893 µM | CCC(C(=O)N1CCn2c(cc3ccccc32)C1)N1CCN(C)CC1 (stereo not drawn) [Example 38, 1-(3,4-dihydropyrazino[1,2-a]indol-2(1H)-yl)-2-(4-methylpiperazin-1-yl)butan-1-one]
32 | 0.427 µM | CCC(C(=O)N1CCn2c(cc3ccccc32)C1)N(C)CCN(C)C (stereo not drawn) [Example 39, 1-(3,4-dihydropyrazino[1,2-a]indol-2(1H)-yl)-2-((2-(dimethylamino)ethyl)(methyl)amino)butan-1-one]
33 | 0.073 µM | CC(CN1CCN(C)CC1)C(=O)N1CCn2c(cc3ccccc32)C1 (stereo not drawn) [Example 41, 1-(3,4-dihydropyrazino[1,2-a]indol-2(1H)-yl)-2-methyl-3-(4-methylpiperazin-1-yl)propan-1-one]
34 | 0.151 µM | CN(C)CCCC(=O)N1CCN2c3ccccc3CC2C1 (stereo not drawn) [Example 43, 4-(dimethylamino)-1-(3,4,10,10a-tetrahydropyrazino[1,2-a]indol-2(1H)-yl)butan-1-one]
35 | 0.175 µM | CN1CCN(C(C)(C)C(=O)N2CCN3c4ccccc4CC3C2)CC1 (stereo not drawn) [Example 44, 2-methyl-2-(4-methylpiperazin-1-yl)-1-(3,4,10,10a-tetrahydropyrazino[1,2-a]indol-2(1H)-yl)propan-1-one]
36 | 0.0755 µM | CC[C@@H](C(=O)N1CCn2c(cc3ccccc32)C1)N1CCN(C)CC1 [Example 46, (S)-1-(3,4-dihydropyrazino[1,2-a]indol-2(1H)-yl)-2-(4-methylpiperazin-1-yl)butan-1-one]
37 | 0.0495 µM | C[C@H](CN1CCN(C)CC1)C(=O)N1CCn2c(cc3ccccc32)C1 [Example 47, (R)-1-(3,4-dihydropyrazino[1,2-a]indol-2(1H)-yl)-2-methyl-3-(4-methylpiperazin-1-yl)propan-1-one]
38 | 0.142 µM | C[C@@H](CN1CCN(C)CC1)C(=O)N1CCn2c(cc3ccccc32)C1 [Example 48, (S)-1-(3,4-dihydropyrazino[1,2-a]indol-2(1H)-yl)-2-methyl-3-(4-methylpiperazin-1-yl)propan-1-one]

same assay, conditions: transfected HEK-293 membranes, 5 nM [3H](+)-pentazocine as radioligand, 37° C., 120 minutes; maleate

Row | Ki | SMILES
39 | 0.0296 µM | CC(C(=O)N1CCn2c(cc3ccccc32)C1)N1CCCCCC1 (stereo not drawn) [Example 8, 2-(azepan-1-yl)-1-(3,4-dihydropyrazino[1,2-a]indol-2(1H)-yl)propan-1-one maleate]

From US9963453B2, “Substituted pyrazino[1,2-a]indoles as sigma receptor activity modulators” (LABORATORIOS DEL DR. ESTEVE S.A., priority 2013, dated 2018)
